Data published in patent publication US10906905B2, “Five-membered heteroaryl ring bridged ring derivative, preparation method therefor and medical use thereof” (Jiangsu Hengrui Medicine Co., Ltd., priority 2016, dated 2021).
Like-named read-outs stand apart in the source and are kept apart here.

Experiments:
[1] = test system: Smad signaling pathway of TGFβRI; assay: Inhibition of Smad signaling pathway of TGFβRI (3TP-lux luciferase reporter in HepG2 cell); assay type: cell-based; details: Homo sapiens, read-out: IC50 on the inhibition of Smad signaling pathway of TGFβRI
Experimental: The inhibition effect of the compounds of the present invention on Smad signaling pathway of TGFβRI was determined by the following in vitro test.
The inhibition effect of the compounds of the present invention on Smad signaling pathway of TGFβRI was determined by the following experimental method:
The seeding density is 2.5×10^4 cells/well. The cells were incubated overnight at 37° C., 5% CO2. Each well was replaced with fresh EMEM medium containing 10% FBS. […] The cells were further incubated for 24 hours at 37° C., 5% CO2. Each well was replaced with 90 μL of EMEM medium containing 0.5% FBS, then the cells were starved for 6 hours. The compounds were formulated as a 20 mM stock solution, which was diluted in gradient to a 400× concentration with 100% DMSO, and further 40-fold diluted with EMEM containing 0.5% FBS. The cell culture plate was taken out, then 10 μl of diluted compound or control (0.25% DMSO) was added to each well respectively. The plate was shaken gently, then incubated for 18 hours in an incubator at 37° C., 5% CO2. Finally, 100 μl of detection reagent ONE-Glo™ Luciferase Assay (E6110, Promega) was added to each well, and the plate was placed in dark at room temperature for 10 minutes. The chemiluminescence signal values were measured with a Victor 3.0 (PerkinElmer). The IC50 values of the compounds were calculated using Graphpad Prism software based on each concentration of the compound and the corresponding signal value thereof.

NIH3T3 cell = assay: Inhibition of NIH3T3 cell proliferation (CellTiter-Glo); assay type: cell-based; details: Mus musculus, 72 hours, 0.5% FBS
Experimental: The inhibition effect of the compounds of the present invention on NIH3T3 cell proliferation was determined by the following in vitro test.
The inhibition effect of the compounds of the present invention on NIH3T3 cell proliferation was determined by the following experimental method:
On a 96-well white plate with transparent bottom (3903, Corning), 100 μL of NIH3T3 cell (GNM6, Cell Bank of Typical Culture Collection Committee of Chinese Academy of Sciences) was seeded in a DMEM medium containing 10% FBS in each well. The seeding density is 2000 cells/well. The cells were incubated overnight at 37° C., 5% CO2. After overnight incubation, each well was replaced with 90 μL of DMEM medium containing 0.5% FBS. 10 μl of a 3-fold gradient dilution of the compounds with DMEM medium containing 0.5% FBS was then added, and the plate was incubated for 72 hours in a cell incubator at 37° C., 5% CO2. Finally, 50 μL of CellTiter-Glo (G7573, Promega) was added to each well. After incubation for 10 minutes at room temperature, the chemiluminescence signal values were measured with a Victor 3 microplate reader (PerkinElmer). The IC50 values of the compounds were calculated using Graphpad Prism software based on each concentration of the compound and the corresponding signal value thereof.

TGFβRI kinase ALK5 = TGFβRI kinase ALK5 (Homo sapiens (Human), UniProt P36897); assay: Inhibition of TGFβRI kinase ALK5 activity (TGFβRI kinase assay kit, ADP-Glo); assay type: biochemical; details: ATP 50 μM; read-out: IC50 of inhibition effect on TGFβRI kinase ALK5 activity
Sequence of TGFβRI kinase ALK5 (P36897 34-503): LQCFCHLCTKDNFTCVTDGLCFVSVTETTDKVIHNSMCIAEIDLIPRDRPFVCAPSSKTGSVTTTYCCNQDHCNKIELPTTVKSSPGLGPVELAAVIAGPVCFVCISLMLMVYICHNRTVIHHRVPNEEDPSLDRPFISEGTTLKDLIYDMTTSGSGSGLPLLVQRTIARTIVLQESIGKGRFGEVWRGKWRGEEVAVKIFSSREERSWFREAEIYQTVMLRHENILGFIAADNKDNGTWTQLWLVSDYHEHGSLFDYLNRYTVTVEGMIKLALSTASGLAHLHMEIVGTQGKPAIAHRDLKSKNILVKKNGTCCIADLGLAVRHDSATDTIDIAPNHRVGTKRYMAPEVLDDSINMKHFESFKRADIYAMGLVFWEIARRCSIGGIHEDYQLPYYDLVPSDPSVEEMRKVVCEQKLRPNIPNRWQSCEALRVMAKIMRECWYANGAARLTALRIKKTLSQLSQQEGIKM
Experimental: The inhibition effect of TGFβRI kinase activity in vitro was determined by the following method.
The inhibition effect of the compounds of the present invention on TGFβRI kinase ALK5 activity was determined by the following experimental method:
TGFβRI kinase assay kit (V4093, Promega) was used to assay enzyme activity. 2 μl of enzyme solution (the final concentration of enzyme in the reaction system was 2 ng/μL) formulated with reaction buffer (40 mM Tris pH 7.5, 20 mM MgCl2, 0.1 mg/ml BSA), 1 μl of a 3-fold gradient dilution of the compounds dissolved in 5% DMSO, and 2 μl of a mixed solution of ATP and TGFβRI substrate peptide (the final concentration of ATP was 50 μM, and the final concentration of substrate was 0.2 μg/μL) were added successively to a 384-well plate (4514, Corning). After reaction at 27° C. for 2.5 hours, 5 μl of ADP-Glo solution in the kit was added to each well, then the plate was placed at 27° C. for 40 minutes. 10 μl of kinase assay reagent was then added to each well, then the plate was placed at 27° C. for 30 minutes. The chemiluminescence signal values were measured with a Victor 3 (PerkinElmer) multi-function microplate reader. The IC50 values of the compounds for enzyme inhibition were calculated using Graphpad prism software based on each concentration of the compound and the corresponding signal value thereof.

[2] = Pharmacokinetics assay in rats after intragastrical administration; assay type: in vivo; details: both sexes, Sprague-Dawley, rat, plasma, po, SD rats, 2 mg/kg
Experimental: Rats were used as test animals. The drug concentration in plasma at different time points was determined by LC/MS/MS method after intragastrical administration of the compounds of Examples 1-1, 1-2, 2-1, 3-1, the compound with retention time of 6.631 minutes among Examples 9-1 and 9-2, and the compounds of Examples 33 and 39-1 to rats. The pharmacokinetic behavior of the compounds of the present invention was studied and evaluated in rats.
Compounds of Examples 1-1, 1-2, 2-1, 3-1, compound with retention time of 6.631 minutes among Examples 9-1 and 9-2, and compounds of Examples 33 and 39-1.
Twenty-eight healthy adult Sprague-Dawley (SD) rats (half male and half female) were purchased from SINO-BRITISH SIPPR/BK LAB. ANIMAL LTD., CO, with Certificate No.: SCXK (Shanghai) 2008-0016, and equally divided into 7 groups (4 rats per group).
A certain amount of the test compound was weighed, and added with 5% by volume of DMSO, 5% by volume of Tween 80, and 90% by volume of physiological saline were added to prepare a 0.2 mg/mL colorless, clear and transparent solution.
After an overnight fast, SD rats were administered intragastrically the test compounds at an administration dosage of 2.0 mg/kg and an administration volume of 10.0 mL/kg.
The rats were intragastrically administered the compounds of Examples 1-1, 1-2, 2-1, 3-1, the compound with retention time of 6.631 minutes among Examples 9-1 and 9-2, and the compounds of Examples 33 and 39-1.0.2 mL of blood was taken from the orbital sinus before administration and at 0.5, 1.0, 2.0, 4.0, 6.0, 8.0, 11.0 and 24.0 hours after administration. The samples were stored in heparinized tubes, and centrifuged for 10 minutes at 4° C. at 3,500 rpm to separate the blood plasma. The plasma samples were stored at −20° C. The rats were fed 2 hours after administration.
The content of the test compounds in the plasma of rats after intragastrical administration of the test compounds at different concentrations was determined: 25 μL of rat plasma at each time after administration was taken, added with 50 μL (100 ng/mL) of the internal standard solution of camptothecin and 175 μL of acetonitrile, shaken vertically for 5 minutes, and centrifuged for 10 minutes (4000 rpm). 3.0 μL of the supernatant was taken from the plasma samples for LC/MS/MS analysis.

[3] = HepG2 cell, 3TP-lux plasmid, 18 hours

SMILES	IC50 [1, 3]	IC50 (TGFβRI kinase ALK5)	also measured
Cc1cccc(-c2nc3n(c2-c2ccc4nccc(C(N)=O)c4c2)C2CCC3C2)n1 (centres unmarked) [Example 1, 6-(2-(6-Methylpyridin-2-yl)-5,6,7,8-tetrahydro-5,8-methanoimidazo[1,2-a]pyridin-3-yl) quinoline-4-carboxamide]	57 nM	14 nM	IC50 (NIH3T3 cell): 80 nM
Cc1cccc(-c2nc3n(c2-c2ccc4nccc(C(N)=O)c4c2)[C@@H]2CC[C@H]3C2)n1 [Example 1-2, 6-((5R,8S)-2-(6-Methylpyridin-2-yl)-5,6,7,8-tetrahydro-5,8-methanoimidazo[1,2-a]pyridin-3-yl)quinoline-4-carboxamide]	15 nM	16 nM	Vd/F ([2]; read-out: Apparent distribution volume Vz/F): 14.6 ± 7.63 L/kg; AUC ([2]; read-out: Area under curve AUC): 475 ± 267 ng·h/mL; CL/F ([2]; read-out: Clearance CLz/F): 89.2 ± 47.4 mL/min/kg; half-life ([2]; read-out: Half-life T1/2 (converted)): 1.92 ± 0.14 h; Cmax ([2]; read-out: Plasma concentration Cmax): 146 ± 81 ng/mL; MRT ([2]; read-out: Residence time MRT): 3.53 ± 0.93 h
Cc1cccc(-c2nc3n(c2-c2ccnc(NCCO)c2)C2CCC3C2)n1 (centres unmarked) [Example 5, 2-((4-(2-(6-Methylpyridin-2-yl)-5,6,7,8-tetrahydro-5,8-methanoimidazo[1,2-a]pyridin-3-yl)pyridin-2-yl)amino)ethanol]	39 nM	59 nM	
Cc1cccc(-c2nc3n(c2-c2ccnc(NCCO)c2)[C@H]2CC[C@@H]3C2)n1 [Example 5-1, 2-((4-((5S,8R)-2-(6-Methylpyridin-2-yl)-5,6,7,8-tetrahydro-5,8-methanoimidazo[1,2-a]pyridin-3-yl)pyridin-2-yl)amino)ethanol]		46 nM	IC50 ([1]; HepG2, 18 h): 75 nM
Cc1cccc(-c2nc3n(c2-c2ccc4nccnc4c2)C2CCC3C2)n1 (centres unmarked) [Example 6, 2-(6-Methylpyridin-2-yl)-3-(quinoxalin-6-yl)-5,6,7,8-tetrahydro-5,8-methanoimidazo[1,2-a]pyridine]	21 nM	26 nM	IC50 (NIH3T3 cell): 22 nM
Cc1cccc(-c2nc3n(c2-c2ccc4ncc(OCCO)nc4c2)C2CCC3C2)n1 (centres unmarked) [Example 7, 2-((7-(2-(6-Methylpyridin-2-yl)-5,6,7,8-tetrahydro-5,8-methanoimidazo[1,2-a]pyridin-3-yl)quinoxalin-2-yl)oxy)ethanol]	6 nM	20 nM	IC50 (NIH3T3 cell): 23 nM
NC(=O)c1nnc2ccc(-c3c(-c4ccc(F)cn4)nc4n3C3CCC4C3)cn12 (centres unmarked) [Example 9, 6-(2-(5-Fluoropyridin-2-yl)-5,6,7,8-tetrahydro-5,8-methanoimidazo[1,2-a]pyridin-3-yl)-[1,2,4]triazolo[4,3-a]pyridine-3-carboxamide]	82 nM	43 nM	IC50 (NIH3T3 cell): 91 nM
Cc1cccc(-c2nc3n(c2-c2ccnc(-c4ccc(S(N)(=O)=O)cc4)c2)[C@H]2CC[C@@H]3C2)n1 [Example 13-1, 4-(4-((5S,8R)-2-(6-Methylpyridin-2-yl)-5,6,7,8-tetrahydro-5,8-methanoimidazo[1,2-a]pyridin-3-yl)pyridin-2-yl)benzenesulfonamide]	37 nM	11 nM	
Cc1cccc(-c2nc3n(c2-c2ccnc(Nc4ccc(S(N)(=O)=O)cc4)c2)C2CCC3C2)n1 (centres unmarked) [Example 14, 4-((4-(2-(6-Methylpyridin-2-yl)-5,6,7,8-tetrahydro-5,8-methanoimidazo[1,2-a]pyridin-3-yl)pyridin-2-yl)amino)benzenesulfonamide]		31 nM	IC50 ([1]; HepG2, 18 h): 81 nM
Cc1cccc(-c2nc3n(c2-c2ccnc(NC[C@H](C)O)c2)[C@H]2CC[C@@H]3C2)n1 [Example 18-1, (S)-1-((4-((5S,8R)-2-(6-Methylpyridin-2-yl)-5,6,7,8-tetrahydro-5,8-methanoimidazo[1,2-a]pyridin-3-yl)pyridin-2-yl)amino)propan-2-ol]	88 nM	80 nM	
Cc1cccc(-c2nc3n(c2-c2ccnc(N)c2)C2CCC3C2)n1 (centres unmarked) [Example 32, 4-(2-(6-Methylpyridin-2-yl)-5,6,7,8-tetrahydro-5,8-methanoimidazo[1,2-a]pyridin-3-yl)pyridin-2-amine]		9 nM	IC50 ([1]; HepG2, 18 h): 8 nM
Cc1cccc(-c2nc3n(c2-c2ccnc(-c4cnn(S(C)(=O)=O)c4)c2)C2CCC3C2)n1 (centres unmarked) [Example 43, 2-(6-Methylpyridin-2-yl)-3-(2-(1-(methylsulfonyl)-1H-pyrazol-4-yl)pyridin-4-yl)-5,6,7,8-tetrahydro-5,8-methanoimidazo[1,2-a]pyridine]		21 nM	IC50 ([1]; HepG2, 18 h): 11 nM
CS(=O)(=O)c1ccc(-c2cc(-c3c(-c4ccccn4)nc4n3[C@H]3CC[C@@H]4C3)ccn2)cc1 [Example 46-1, (5S,8R)-3-(2-(4-(Methylsulfonyl)phenyl)pyridin-4-yl)-2-(pyridin-2-yl)-5,6,7,8-tetrahydro-5,8-methanoimidazo[1,2-a]pyridine]	79 nM	34 nM	
NC(=O)c1nnc2cc(-c3c(-c4ccccn4)nc4n3[C@H]3CC[C@@H]4C3)ccn12 [Example 47-1, 7-((5S,8R)-2-(Pyridin-2-yl)-5,6,7,8-tetrahydro-5,8-methanoimidazo[1,2-a]pyridin-3-yl)-[1,2,4]triazolo[4,3-a]pyridine-3-carboxamide]	53 nM	39 nM	
